Measured values from patent US20220144812A1, “QUINOLINE DERIVATIVES AND THEIR USE FOR THE TREATMENT OF CANCER” (Epizyme, Inc., priority 2019, published 2022).
Read-outs that look alike come from different tables or passages of the source.

Assays:
647V cells = assay: High throughput proliferation (HTP) assay; type: cell-based; settings: high throughput proliferation, read-out: CREBBP HTP IC50
How it was run: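 Proliferation IC50 (micromolar) derived from a 7-day CellTiter-Glo viable-cell readout in 647V cells exposed, in triplicate, to rising compound concentrations; cells grown in DMEM plus 15% heat-inactivated FBS at 37° C under 5% CO2.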

CREBBP (1084-1701) = molecular target: T1, CREBBP (1084-1701) (Homo sapiens, UniProt Q92793); assay: Biochemical assay for CREBBP (1084-1701), SAMDI; settings: SAMDI, read-out: CREBBP Biochemistry IC50
T1 construct: measured in the following biochemical assay using CREBBP (1084-1701); purchased
T1 sequence (Q92793 1084-1701): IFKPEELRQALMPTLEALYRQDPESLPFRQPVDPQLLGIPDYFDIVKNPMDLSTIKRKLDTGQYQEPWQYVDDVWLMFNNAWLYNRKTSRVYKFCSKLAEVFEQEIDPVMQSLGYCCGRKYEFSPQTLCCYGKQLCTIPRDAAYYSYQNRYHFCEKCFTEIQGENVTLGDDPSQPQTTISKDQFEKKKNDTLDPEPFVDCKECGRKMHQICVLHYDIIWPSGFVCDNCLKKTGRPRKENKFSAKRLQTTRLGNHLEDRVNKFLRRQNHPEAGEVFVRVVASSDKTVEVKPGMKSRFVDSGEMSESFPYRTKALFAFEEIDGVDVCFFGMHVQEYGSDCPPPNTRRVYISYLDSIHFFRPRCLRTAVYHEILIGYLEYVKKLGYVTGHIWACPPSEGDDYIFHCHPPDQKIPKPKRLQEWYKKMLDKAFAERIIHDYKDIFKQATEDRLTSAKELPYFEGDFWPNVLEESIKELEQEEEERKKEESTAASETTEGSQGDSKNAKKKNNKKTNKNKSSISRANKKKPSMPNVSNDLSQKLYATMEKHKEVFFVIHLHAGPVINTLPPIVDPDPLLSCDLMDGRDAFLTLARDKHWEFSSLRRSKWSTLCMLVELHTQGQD
How it was run: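 Acetyltransferase activity measured by SAMDI mass spectrometry after capture on biochip. Enzyme sat with compound 30 min at RT before acetyl-CoA and biotinylated H3 11-25 (K14R, K23R) peptide were added for 30 min at RT. Formic acid quench, bicarbonate neutralisation; IC50 values reported.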

EP300 (P300(1048-1664)) = molecular target: T2, EP300 (P300(1048-1664)) (Homo sapiens, UniProt Q09472); assay: Biochemical assay for EP300, SAMDI; settings: EP300, SAMDI; read-out: EP300 Biochemistry IC50
T2 construct: P300(1048-1664)
T2 sequence (Q09472 1048-1664): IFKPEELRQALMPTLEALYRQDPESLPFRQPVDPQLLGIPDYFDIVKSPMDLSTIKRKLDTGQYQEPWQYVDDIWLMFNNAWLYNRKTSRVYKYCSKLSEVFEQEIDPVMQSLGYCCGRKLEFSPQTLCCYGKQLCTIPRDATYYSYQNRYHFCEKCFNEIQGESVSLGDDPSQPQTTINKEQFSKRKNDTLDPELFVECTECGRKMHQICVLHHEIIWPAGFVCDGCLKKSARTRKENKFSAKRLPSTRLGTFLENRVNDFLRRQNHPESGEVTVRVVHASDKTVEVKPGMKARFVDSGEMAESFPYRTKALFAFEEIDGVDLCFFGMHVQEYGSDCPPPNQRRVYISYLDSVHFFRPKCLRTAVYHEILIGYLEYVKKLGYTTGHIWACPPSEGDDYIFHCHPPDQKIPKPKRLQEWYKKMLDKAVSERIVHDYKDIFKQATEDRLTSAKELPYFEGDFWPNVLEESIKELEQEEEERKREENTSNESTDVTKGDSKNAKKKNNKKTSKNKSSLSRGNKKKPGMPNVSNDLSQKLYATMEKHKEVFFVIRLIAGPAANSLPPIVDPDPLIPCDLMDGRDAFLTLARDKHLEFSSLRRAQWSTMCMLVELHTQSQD
Description: The following example describes materials and methods relating to a biochemical assay for EP300. IC50 values (micromolar (μM)) are summarized in Table 1, Table 2, and Table 3 under the column labeled: “EP300 Biochemistry IC50 (micromolar).”

[1] = tested on: H3K18Ac in HB-CLS-2 cells; assay: H3K18AC in-cell western (ICW) assay; type: cell-based; settings: H3K18Ac in-cell western, read-out: CREBBP ICW IC50
How it was run: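 In-cell western: after methanol fixation, blocking, overnight 4° C anti-H3K18Ac staining, then 800CW secondary plus DRAQ5 for DNA content, integrated intensities were scanned at 800 and 700 nm. Before this, compound exposure lasted 2 hr at 37° C in HB-CLS-2 cells plated 16–24 hours earlier. Values expressed as IC50 (μM).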

[2] = Homo sapiens, 647-V, 647V cells

| Structure (SMILES) | IC50 (647V cells; Homo sapiens, 647-V) | IC50 (CREBBP (1084-1701)) | IC50 (EP300 (P300(1048-1664))) | IC50 [1] | IC50 (647V cells) | IC50 (647V cells; [2]) | IC50 ([1]; HB-CLS-2 cells) | IC50 (647V cells; 647V cells) |
| --- | --- | --- | --- | --- | --- | --- | --- | --- |
| CCn1ncc(CN(C)C(=O)c2nc(N3CCc4[nH]c(C)nc4C3)nc3ccc(Cl)cc23)c1C [Compound 159] | 10 µM | 20 µM | 7.7 µM | 10 µM | – | – | – | – |
| CCn1ncc(CN(C)C(=O)c2nc(-c3cc(C(=O)NC4CCN(C)CC4)nn3C)nc3ccc(Cl)cc23)c1C [Compound 160] | 5.1 µM | 32 µM | 20 µM | 11 µM | – | – | – | – |
| CCn1ncc(CN(C)C(=O)c2nc(N3CCc4cn[nH]c4C3)nc3ccc(Cl)cc23)c1C [Compound 161] | 11 µM | 17 µM | 6.2 µM | 11 µM | – | – | – | – |
| CCn1ncc(CN(C)C(=O)c2nc(-c3cc(C(=O)NCCCN4CCCC4)n(Cc4ccc(OC)cc4)n3)nc3ccc(Cl)cc23)c1C [Compound 163] | 2.7 µM | 62 µM | 35 µM | 12 µM | – | – | – | – |
| CCn1ncc(CN(C)C(=O)c2nc(-c3ccc(C(=O)NC)c(C)c3)nc3ccc(Cl)cc23)c1C [Compound 164] | 9.8 µM | 52 µM | 30 µM | 13 µM | – | – | – | – |
| CCn1ncc(CN(C)C(=O)c2cc(-c3ccc(OCCCO)cn3)nc3ccc(Cl)cc23)c1C [Compound 166] | 11 µM | 28 µM | 15 µM | 13 µM | – | – | – | – |
| CCn1ncc(CN(C)C(=O)c2nc(N3CCc4[nH]cnc4C3)nc3ccc(Cl)cc23)c1C [Compound 167] | 11 µM | 18 µM | 8 µM | 13 µM | – | – | – | – |
| CCn1ncc(CN(C)C(=O)c2cc(-n3cc4c(n3)CNCC4)nc3ccc(Cl)cc23)c1C [Compound 168] | – | 18 µM | 5.8 µM | 13 µM | 18 µM | – | – | – |
| CCn1ncc(CN(C)C(=O)c2nc(-c3cc(C(=O)NCCN4CCCC4)on3)nc3ccc(Cl)cc23)c1C [Compound 169] | 6.7 µM | 8.4 µM | 15 µM | 13 µM | – | – | – | – |
| CCn1ncc(CN(C)C(=O)c2nc(-c3cn(C)cn3)nc3ccc(Cl)cc23)c1C [Compound 170] | 6.9 µM | 58 µM | 13 µM | 14 µM | – | – | – | – |
| CCn1ncc(CN(C)C(=O)c2nc(-c3ccc(-c4ccn[nH]4)cc3)nc3ccc(Cl)cc23)c1C [Compound 171] | 7.8 µM | 8.5 µM | 3.6 µM | 14 µM | – | – | – | – |
| CCn1ncc(CN(C)C(=O)c2nc(-c3ccc(OCCO)cn3)nc3ccc(Cl)cc23)c1C [Compound 173] | 11 µM | 17 µM | 7.8 µM | 14 µM | – | – | – | – |
| CCn1ncc(CN(C)C(=O)c2nc(-c3cc(CN(C)Cc4ccc(OC)cc4)nn3C)nc3ccc(Cl)cc23)c1C [Compound 176] | 8.2 µM | 86 µM | 44 µM | 16 µM | – | – | – | – |
| CCn1ncc(CN(C)C(=O)c2nc(-c3cc(C(=O)NCCN4CCCC4)n(Cc4ccc(OC)cc4)n3)nc3ccc(Cl)cc23)c1C [Compound 177] | 3.4 µM | 54 µM | 44 µM | 16 µM | – | – | – | – |
| CCn1ncc(CN(C)C(=O)c2nc(-n3cc4c(n3)CNCC4)nc3ccc(Cl)cc23)c1C [Compound 179] | 20 µM | 115 µM | 55 µM | 18 µM | – | – | – | – |
| CCn1ncc(CN(C)C(=O)c2nc(-n3cc(C)cn3)nc3ccc(Cl)cc23)c1C [Compound 182] | 7.8 µM | 70 µM | 19 µM | 19 µM | – | – | – | – |
| CCn1ncc(CN(C)C(=O)c2cc(-c3cn(C)c(OC)n3)nc3cc(Cl)ccc23)c1C [Compound 185] | 20 µM | 98 µM | 56 µM | 20 µM | – | – | – | – |
| CCn1ncc(CN(C)C(=O)c2cc(-n3ncc4c3CNCC4)nc3ccc(Cl)cc23)c1C [Compound 186] | 7.8 µM | 114 µM | 64 µM | 20 µM | – | – | – | – |

| Structure (SMILES) | IC50 (647V cells; Homo sapiens, 647-V) | IC50 (CREBBP (1084-1701)) | IC50 (EP300 (P300(1048-1664))) | IC50 [1] | IC50 (647V cells) | IC50 (647V cells; [2]) | IC50 ([1]; HB-CLS-2 cells) | IC50 (647V cells; 647V cells) |
| --- | --- | --- | --- | --- | --- | --- | --- | --- |
| CCn1ncc(CN(C)C(=O)c2nc(-c3cnc(CO)n3C)nc3ccc(Cl)cc23)c1C [Compound 208] | – | 50 µM | 36 µM | – | – | 20 µM | 20 µM | – |
| CCn1ncc(CN(C)C(=O)c2nc(N3CCn4cc(C)nc4C3)nc3ccc(Cl)cc23)c1C [Compound 220] | – | 141 µM | 100 µM | – | – | 20 µM | 20 µM | – |
| CCn1ncc(CN(C)C(=O)c2cc(-c3cn[nH]c3N)nc3ccc(Cl)cc23)c1C [Compound 227] | – | 50 µM | 41 µM | – | – | 20 µM | 20 µM | – |
| CCn1ncc(CN(C)C(=O)c2nc(-c3cc(CNC)n(C)n3)nc3ccc(Cl)cc23)c1C [Compound 380] | – | 25 µM | 14 µM | – | – | 20 µM | 20 µM | – |
| CCn1ncc(CN(C)C(=O)c2nc(-c3cc(C)cc(NC4CCNC4)c3)cc3ccc(Cl)cc23)c1C (stereo not drawn) [Compound 383] | – | 0.017 µM | 0.0051 µM | – | – | – | 0.19 µM | 0.063 µM |
| CCn1ncc(CN(C)C(=O)c2nc(-c3cc(NC(=O)CNC)cc(OC)c3)nc3ccc(Cl)cc23)c1C [Compound 384] | – | 0.033 µM | 0.012 µM | – | – | 0.1 µM | 0.13 µM | – |
| CCn1ncc(CN(C)C(=O)c2cc(-c3ccc4c[nH]nc4n3)nc3ccc(Cl)cc23)c1C [Compound 386] | – | 0.015 µM | 0.01 µM | – | – | 0.31 µM | 0.2 µM | – |
| CCn1ncc(CN(C)C(=O)c2nc(-c3ccc(NC4CCOCC4)c(C)c3)nc3ccc(Cl)cc23)c1C [Compound 387] | – | 0.016 µM | 0.0075 µM | – | – | 0.088 µM | 0.12 µM | – |
| CCn1ncc(CN(C)C(=O)c2cc(-c3ccc(NCCNC)c(C)n3)nc3ccc(Cl)cc23)c1C [Compound 388] | – | 0.034 µM | 0.011 µM | – | – | 0.066 µM | 0.23 µM | – |
| CCn1ncc(CN(C)C(=O)c2cc(-c3ccc(NC4CNC4)c(C)n3)nc3ccc(Cl)cc23)c1C [Compound 389] | – | 0.017 µM | 0.0074 µM | – | – | 0.073 µM | 0.082 µM | – |
| CCn1ncc(CN(C)C(=O)c2nc(-c3cc(OC)c4cn[nH]c4c3)nc3ccc(Cl)cc23)c1C [Compound 390] | – | 0.033 µM | 0.14 µM | – | – | 0.68 µM | 0.65 µM | – |
| CCn1ncc(CN(C)C(=O)c2nc(-c3cc(C(=O)NC)nn3C)nc3ccc(Cl)cc23)c1C [Compound 391] | – | 8.5 µM | 4.1 µM | – | – | 3.1 µM | 3.2 µM | – |
| CCn1ncc(CN(C)C(=O)c2nc(-c3cc(Cl)cc(C(=O)NC)c3)nc3ccc(Cl)cc23)c1C [Compound 392] | – | 50 µM | 50 µM | – | – | 20 µM | 20 µM | – |
| CCn1ncc(CN(C)C(=O)c2nc(-c3cc(Cl)cc(CNC4CCNCC4)c3)nc3ccc(Cl)cc23)c1C [Compound 394] | – | 2 µM | 3.8 µM | – | – | 4.2 µM | 5.4 µM | – |
| CCn1ncc(CN(C)C(=O)c2cc(-c3ccc(NCC(=O)NC)c(C)n3)nc3ccc(Cl)cc23)c1C [Compound 395] | – | 0.037 µM | 0.037 µM | – | – | 0.41 µM | 0.27 µM | – |
| CCn1ncc(CN(C)C(=O)c2nc(-c3cc(C(=O)Nc4ccccc4)n(C)n3)nc3ccc(Cl)cc23)c1C [Compound 396] | – | 50 µM | 35 µM | – | – | 8.4 µM | 20 µM | – |
| CCn1ncc(CN(C)C(=O)c2cc(-c3cc(NC(=O)CNC)cc(C)n3)nc3ccc(Cl)cc23)c1C [Compound 397] | – | 0.043 µM | 0.042 µM | – | – | 0.16 µM | 0.13 µM | – |
| CCn1ncc(CN(C)C(=O)c2nc(-c3cc(C)nc(CNC)c3)nc3ccc(Cl)cc23)c1C [Compound 398] | – | 24 µM | 22 µM | – | – | 4.8 µM | 8.2 µM | – |
